Where two headings read alike, the source gives them in different places.
Assays:
[1] = molecular target: Tb-labeled inactive PDGFRβ (Homo sapiens (Human), UniProt P09619); test: biochemical; type: binding; conditions: read-out: PDGFR Lantha IC50
[2] = molecular target: His6-TEV-PDGFRβ (557-1016) (Homo sapiens (Human), UniProt P09619); test: PDGFRβ HTRF Assay; type: biochemical; conditions: 800 μM ATP, 0.5 μM TK-substrate biotin peptide, 30 min pre-incubation, 3 hours reaction; read-out: PDGFR HTRF IC50
His6-TEV-PDGFRβ (557-1016), sequence (P09619 whole entry, looked up): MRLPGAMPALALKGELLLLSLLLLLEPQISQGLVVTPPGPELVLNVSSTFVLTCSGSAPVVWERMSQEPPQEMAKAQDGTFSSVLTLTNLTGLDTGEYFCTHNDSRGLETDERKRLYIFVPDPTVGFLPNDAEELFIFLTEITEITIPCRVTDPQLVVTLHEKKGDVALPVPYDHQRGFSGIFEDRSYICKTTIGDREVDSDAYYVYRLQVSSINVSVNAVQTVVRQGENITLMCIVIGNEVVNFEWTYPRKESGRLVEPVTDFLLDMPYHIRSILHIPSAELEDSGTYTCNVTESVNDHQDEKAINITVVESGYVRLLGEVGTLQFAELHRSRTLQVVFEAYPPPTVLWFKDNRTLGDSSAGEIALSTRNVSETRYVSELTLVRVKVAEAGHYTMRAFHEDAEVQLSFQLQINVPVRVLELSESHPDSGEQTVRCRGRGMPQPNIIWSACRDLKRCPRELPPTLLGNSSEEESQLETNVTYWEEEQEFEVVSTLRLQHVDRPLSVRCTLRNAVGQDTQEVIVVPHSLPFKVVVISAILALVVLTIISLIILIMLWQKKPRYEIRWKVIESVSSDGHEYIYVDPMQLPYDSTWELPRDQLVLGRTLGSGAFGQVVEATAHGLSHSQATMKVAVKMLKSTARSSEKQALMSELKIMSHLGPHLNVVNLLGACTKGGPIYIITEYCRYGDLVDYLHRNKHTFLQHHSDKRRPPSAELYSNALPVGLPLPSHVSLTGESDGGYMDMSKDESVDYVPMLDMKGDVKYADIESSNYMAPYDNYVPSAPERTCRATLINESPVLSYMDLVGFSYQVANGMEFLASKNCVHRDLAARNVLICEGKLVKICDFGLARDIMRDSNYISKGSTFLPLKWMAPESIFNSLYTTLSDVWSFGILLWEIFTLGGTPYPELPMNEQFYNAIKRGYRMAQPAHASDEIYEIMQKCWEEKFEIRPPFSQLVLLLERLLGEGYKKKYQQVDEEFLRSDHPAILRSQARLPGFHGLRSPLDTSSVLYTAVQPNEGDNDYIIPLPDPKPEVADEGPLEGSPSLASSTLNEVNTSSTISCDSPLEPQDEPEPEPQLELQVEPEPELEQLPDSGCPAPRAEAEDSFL
Procedure: Instrumentation: a. Compound liquid handling: LabCyte Echo; b. Reagent liquid handling: Thermo Scientific Multidrop Combi; c. BMG PHERAStar multilabel plate reader.
Protein Reagent: His6-TEV-PDGFRβ Protein Prep prepared at Accelagen.
Assay buffer stock solution, contains 50 mM Hepes, 10 mM MgCl2, 1 mM EGTA, and 0.01% Brij-35, 0.01% ovalbumin, 2 mM DTT at pH 7.5, in molecular biology grade water. Store at room temperature.
Assay buffer. Dilute 5× Kinase buffer 5-fold with molecular biology grade water and add DTT to 2 mM and ovalbumin to 0.1 mg/mL (or 0.01%).
2× protein solution. Make a working solution of […] PDGFRβ in assay buffer. Keep on ice until use to maintain enzyme stability.
2× substrate solution. Make a working solution of 1.6 mM ATP and 1 μM TK-substrate biotin peptide in assay buffer. 3× quench/detection solution.
Step 2. PDGFRβ E+I pre-incubation: Add 2 μL 2× protein solution to columns 1-24 using the Multidrop Combi. Centrifuge at 1000 rpm for 1 min. Incubate 30 min at RT
Step 2. Enzymatic reaction: Add 2 μL substrate solution to columns 1-24 to initiate the reaction using the Multidrop Combi; cover/seal the assay plate to reduce evaporation. Centrifuge at 1000 rpm for 1 min. Incubate at room temperature for 3 hours.
Final concentrations of components in PDGFRp cascade assay:
0.5 μM TK-substrate biotin peptide
Step 3. Quench/Detection: Add 2 μl 3× quench/detection solution to columns 1-24 using the Multidrop Combi; cover/seal the plate. Centrifuge 1 min 1000 rpm. Incubate at RT for 60 min.
HTRF ratio values calculated by the instrument (Ratio is acceptor counts/donor counts*10,000) is exported from the plate reader and used in data analysis. The exported data will be used to calculate 1) compound activity and 2) assay statistics. […] Assay statistics can include Robust Z′ and Signal to Background.
% Inhibition Calculation: Percent inhibition will be calculated for sample wells based on the equation: […]
IC50 Calculation: For IC50 determination, full 11-point dose response data will be processed using the following equation: […]

VEGFR2, unphosphorylated = VEGFR2, unphosphorylated (Homo sapiens (Human), UniProt P35968); test: VEGFR ADP GLO assay; type: biochemical; conditions: 5 nM VEGFR2, 1.2 mM ATP, 1 mg/mL Srctide, 180 min
VEGFR2, unphosphorylated, sequence (P35968 whole entry, looked up): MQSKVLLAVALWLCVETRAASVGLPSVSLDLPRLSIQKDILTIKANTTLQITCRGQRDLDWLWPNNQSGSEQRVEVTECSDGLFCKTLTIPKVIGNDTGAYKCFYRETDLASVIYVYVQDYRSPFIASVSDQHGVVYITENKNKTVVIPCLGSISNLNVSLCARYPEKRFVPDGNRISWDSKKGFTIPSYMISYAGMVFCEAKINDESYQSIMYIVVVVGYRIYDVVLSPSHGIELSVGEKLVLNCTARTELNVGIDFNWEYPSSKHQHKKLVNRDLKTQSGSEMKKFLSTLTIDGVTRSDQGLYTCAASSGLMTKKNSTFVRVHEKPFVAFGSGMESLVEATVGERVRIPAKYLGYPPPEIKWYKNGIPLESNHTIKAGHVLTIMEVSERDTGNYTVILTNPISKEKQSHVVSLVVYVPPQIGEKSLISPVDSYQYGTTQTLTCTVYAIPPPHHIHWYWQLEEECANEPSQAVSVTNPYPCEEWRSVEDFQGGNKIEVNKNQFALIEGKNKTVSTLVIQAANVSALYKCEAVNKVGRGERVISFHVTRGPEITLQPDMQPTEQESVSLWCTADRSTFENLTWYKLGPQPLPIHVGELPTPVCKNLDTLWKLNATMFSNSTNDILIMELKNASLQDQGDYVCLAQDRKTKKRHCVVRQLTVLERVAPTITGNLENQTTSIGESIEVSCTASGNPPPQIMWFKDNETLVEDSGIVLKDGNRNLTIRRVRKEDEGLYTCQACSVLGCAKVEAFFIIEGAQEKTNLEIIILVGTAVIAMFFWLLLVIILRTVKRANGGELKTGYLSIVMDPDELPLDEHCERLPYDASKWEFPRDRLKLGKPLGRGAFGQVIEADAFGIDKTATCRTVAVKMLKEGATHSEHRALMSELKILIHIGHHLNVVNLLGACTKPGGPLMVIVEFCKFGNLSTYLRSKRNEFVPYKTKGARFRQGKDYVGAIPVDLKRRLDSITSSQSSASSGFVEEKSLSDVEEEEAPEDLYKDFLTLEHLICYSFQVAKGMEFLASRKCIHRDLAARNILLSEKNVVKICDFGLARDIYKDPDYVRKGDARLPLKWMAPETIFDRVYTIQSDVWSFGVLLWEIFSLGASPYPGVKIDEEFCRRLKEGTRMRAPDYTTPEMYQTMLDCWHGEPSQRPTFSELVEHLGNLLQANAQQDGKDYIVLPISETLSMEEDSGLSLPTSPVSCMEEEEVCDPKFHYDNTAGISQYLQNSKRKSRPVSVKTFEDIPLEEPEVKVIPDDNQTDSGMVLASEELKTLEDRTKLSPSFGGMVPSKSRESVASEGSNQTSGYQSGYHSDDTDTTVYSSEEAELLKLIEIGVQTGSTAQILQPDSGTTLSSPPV
Procedure: Assay buffer stock contains 50 mM HEPES pH7.5, 10 mM MgCl2, 0.01% Brij-35, and 1 mM EGTA.
Unphosphorylated VEGFR2. 52.6 μM in 50 mM Tris-HCl, pH 8.0, 50 mM NaCl, 5% Glycerol, 0.5 mM TCEP. Store at −80° C. in aliquots.
10 mg/mL srctide solution, prepared in Assay buffer (Assay buffer stock with 2 mM DTT, 0.1% Pluronic F-127, and 0.1 mg/mL ovalbumin). Sonicate 10 mg/ml Srctide solution for 10 minutes and then vacuum filter.
Assay buffer. Add DTT to 2 mM, Pluronic F-127 to 0.1% and ovalbumin to 0.1 mg/mL to Assay buffer stock.
2× kinase solution. Make a working solution of 10 nM unphosphorylated VEGFR2 in Assay buffer. Vacuum filter 2× kinase solution prior to running assay. Keep on ice until use.
2× substrate/ATP solution. Make a working solution of 2 mg/mL srctide and 2.4 mM ATP in Assay buffer. Keep on ice until use.
Step 1. Dispensing inhibitors/controls: Using Echo, dispense 10 nL/well compound serial dilutions in DMSO to columns 1-22 (in 384-well plates) or columns 1-44 (in 1536-well plates). Dilution series=11 pt, 3-fold dilutions. The top compound concentration in the source plate is 4 mM. The top compound concentration in the assay plate is 10 uM. Using Echo, dispense 10 nl/well DMSO to column 23 (in 384-well plates) or columns 45-47 (in 1536-well plates). These wells will serve as negative control wells Using Echo, dispense 10 nl/well 400 uM TAK-593 in DMSO to column 24 (in 384-well plates) or column 48 (in 1536-well plates). The final concentration of TAK-593 in the assay should be 1 uM. These wells will serve as positive control wells.
Step 2. Pre-incubation of inhibitors with kinase: Add 2 μL/well 2× kinase solution. Centrifuge at 1000 rpm for 1 min. Incubate at room temperature for 30 min.
Step 3. Kinase cascade reaction: Add 2 μL/well 2× substrate/ATP solution to initiate kinase reactions. Centrifuge at 1000 rpm for 1 min. Incubate at room temperature for 180 min.
Final concentrations of components in the assay:
Step 4. Quench: Add 2 uL/well ADP Glo Reagent+0.05% CHAPS. Centrifuge at 1000 rpm for 1 min; Incubate at room temperature for one hour.
Step 5. Detection: Add 2 uL/well Kinase Detection Reagent+0.05% CHAPS. Centrifuge at 1000 rpm for 1 min; Incubate at room temperature for 1 hour; Read Luminescence on a plate reader.
% Inhibition: % Inhibition=(NC−sample)/(NC−PC)*100 where NC is the mean of negative control (reactions without inhibitor), and PC is the mean of positive control (1 μM TAK-593).
IC50 values are determined from a 4-parameter fit, using the following equation: Y=Bottom+(Top−Bottom)/(1+10^(Log IC50-X)*Hill Slope), where X=log10 of the compound concentration; top can be defined by PC; bottom defined by NC.

PDGFRβ = PDGFRβ (Rattus norvegicus (Rat), UniProt Q05030); test: PDGFRβ Cellular Assay (PDGFRb P-Y751 HTRF, PDGF-BB stimulated A10 cells); type: cell-based
PDGFRβ, sequence (Q05030 whole entry, looked up): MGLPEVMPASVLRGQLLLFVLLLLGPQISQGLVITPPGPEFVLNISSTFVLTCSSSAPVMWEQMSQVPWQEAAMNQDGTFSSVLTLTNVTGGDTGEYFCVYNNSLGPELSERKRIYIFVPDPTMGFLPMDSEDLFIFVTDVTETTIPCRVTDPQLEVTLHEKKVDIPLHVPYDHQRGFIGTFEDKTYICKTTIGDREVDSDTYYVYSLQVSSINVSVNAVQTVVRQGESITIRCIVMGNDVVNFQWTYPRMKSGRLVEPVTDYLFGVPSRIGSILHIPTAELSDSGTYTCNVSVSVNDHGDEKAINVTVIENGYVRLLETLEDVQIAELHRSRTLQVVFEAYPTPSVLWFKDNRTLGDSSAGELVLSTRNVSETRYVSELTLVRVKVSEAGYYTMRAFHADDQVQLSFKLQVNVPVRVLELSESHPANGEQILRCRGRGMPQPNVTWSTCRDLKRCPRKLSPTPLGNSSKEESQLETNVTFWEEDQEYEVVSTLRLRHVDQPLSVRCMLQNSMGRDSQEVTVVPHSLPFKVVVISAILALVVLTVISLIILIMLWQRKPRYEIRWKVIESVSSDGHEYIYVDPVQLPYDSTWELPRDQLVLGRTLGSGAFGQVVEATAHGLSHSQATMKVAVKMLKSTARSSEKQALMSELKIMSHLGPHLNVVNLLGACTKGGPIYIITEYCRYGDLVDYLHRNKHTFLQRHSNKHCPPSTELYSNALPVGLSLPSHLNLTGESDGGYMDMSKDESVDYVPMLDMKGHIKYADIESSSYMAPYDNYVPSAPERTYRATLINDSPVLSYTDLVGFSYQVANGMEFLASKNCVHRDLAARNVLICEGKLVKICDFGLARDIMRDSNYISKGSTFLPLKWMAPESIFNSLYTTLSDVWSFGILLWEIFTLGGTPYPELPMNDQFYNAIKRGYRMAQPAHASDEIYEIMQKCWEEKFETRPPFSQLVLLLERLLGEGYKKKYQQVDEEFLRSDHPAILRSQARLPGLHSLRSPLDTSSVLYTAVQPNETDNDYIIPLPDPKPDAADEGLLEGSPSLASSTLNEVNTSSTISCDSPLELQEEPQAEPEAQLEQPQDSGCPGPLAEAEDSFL
Procedure: Cell Culture and Preparation: Cells are cultured according to ATCC procedure (5) with the addition of the antibiotic penicillin-streptomycin. If working from frozen, cells should be thawed according to ATCC procedure. Depending on the cell density of frozen vial, cells will need time to recover from thaw. An 80% confluent T75 flask should be enough for one 384 well plate.
Stock Solutions: Rat PDGFBB. A 100 ug/mL stock is prepared by reconstituting 50 ug in 500 μL of 4 mM HCl and 0.1% BSA. It can be stored for a month at 4° C., or aliquoted out and frozen in the −20/−80° C. to avoid multiple free-thaw cycles.
1× Cisbio cell lysis buffer. The cell lysis buffer is diluted 4-fold with molecular grade water. The blocking agent is then diluted 25-fold in the diluted lysis buffer.
Antibody solutions. Equal amounts d2 and cryptate antibody are diluted 20-fold in detection buffer.
Rat PDGFBB. A working stock of 100 ng/mL is created from the stock solution in 10% FBS culture media.
Step 1: Plating Cells: Media from the A10 cell flask is aspirated. The cells are rinsed with PBS and then trypsinized to disperse the cell layer. The cells are then pelleted are resuspended to 1.25e5 cells/mL. […] Plates are covered and placed in the incubator (37° C. 5% CO2) overnight to allow cells to adhere.
Step 2: Compound Dispense: Approximately 18 hours after plating, dispense 40 nL compound onto cells using Echo. […] The plate is returned to the incubator for 3 hours.
After 10 minutes the media is removed by flicking the plate.
Step 4: Cell lysis and antibody addition: 20 uL lysis buffer per well is added to the plate via Tempest. 5 uL antibody solution is added per well via the Tempest. The plate is placed on the shaker at 230 rpm for 1 hour at room temperature.
Step 5: Detection: The plate is read using the HTRF module on the BMG Pherastar. Data is analyzed using Genedata Screener.
IC50 values are determined from a 4-parameter fit, using the following equation: Y=Bottom+(Top−Bottom)/(1+10((Log IC50−X)*Hill slope)), where X=log10 of the compound concentration; top can be defined by PC; bottom defined by NC.

[3] = A10 cells, 3 hours compound, 15 ng/mL PDGFbb for 10 minutes, read-out: PDGFR Cellular IC50

Tb-labeled inactive PDGFRβ, sequence (P09619 whole entry, looked up): as the sequence (P09619 whole entry, looked up) above

`CO[C@@H]1CCN(CC(=O)Nc2cnc(C)c(Nc3nn(C)c4nc(Nc5cnn(C)c5)ncc34)c2)C1` [Example 135, (R)-2-(3-methoxypyrrolidin-1-yl)-N-(6-methyl-5-((1-methyl-6-((1-methyl-1H-pyrazol-4-yl)amino)-1H-pyrazolo[3,4-d]pyrimidin-3-yl)amino)pyridin-3-yl)acetamide] was tested, and the IC50 [1] was 2.8 nM, the IC50 [2] was 0.41 nM and the IC50 (VEGFR2, unphosphorylated) was over 7500 nM. For the same compound, the IC50 (PDGFRβ; [3]) was 9.5 nM.

Work on `Cc1ncc(C(=O)NCCN2CC3CCC2CC3)cc1Nc1nn(C)c2nc(Nc3cnn(C)c3)ncc12` [Example 85, N-(2-(2-azabicyclo[2.2.2]octan-2-yl)ethyl)-6-methyl-5-((1-methyl-6-((1-methyl-1H-pyrazol-4-yl)amino)-1H-pyrazolo[3,4-d]pyrimidin-3-yl)amino)nicotinamide] yielded an IC50 [1] of 1.7 nM, an IC50 [2] of 0.27 nM and an IC50 (VEGFR2, unphosphorylated) of 6600 nM. For the same compound, the IC50 (PDGFRβ; [3]) was 71.3 nM.

`Cc1ncc(C(=O)NCCN2CC(C)CC(C)C2)cc1Nc1nn(C)c2nc(Nc3cnn(C)c3)ncc12` (stereo not shown) [Example 87, N-(2-(3,5-dimethylpiperidin-1-yl)ethyl)-6-methyl-5-((1-methyl-6-((1-methyl-1H-pyrazol-4-yl)amino)-1H-pyrazolo[3,4-d]pyrimidin-3-yl)amino)nicotinamide] was tested, and the IC50 [1] was 2.3 nM, the IC50 [2] was 0.29 nM and the IC50 (VEGFR2, unphosphorylated) was over 7500 nM. For the same compound, the IC50 (PDGFRβ; [3]) was 11.5 nM.

Work on `Cc1ncc(NC(=O)CN2CCC[C@@H]2C)cc1Nc1nn(C)c2nc(Nc3cn(C)cn3)ncc12` [Example 142, (S)—N-(6-methyl-5-((1-methyl-6-((1-methyl-1H-imidazol-4-yl)amino)-1H-pyrazolo[3,4-d]pyrimidin-3-yl)amino)pyridin-3-yl)-2-(2-methylpyrrolidin-1-yl)acetamide] yielded an IC50 [1] of 107 nM, an IC50 [2] of 4.66 nM and an IC50 (VEGFR2, unphosphorylated) of over 7500 nM. It also gave an IC50 (PDGFRβ; [3]) of 13.4 nM.

With `Cc1ncc(C(=O)NCCN2CC(C)(C)C2)cc1Nc1nn(C)c2nc(Nc3cncnc3)ncc12` [Example 55, N-(2-(3,3-dimethylazetidin-1-yl)ethyl)-6-methyl-5-((1-methyl-6-(pyrimidin-5-ylamino)-1H-pyrazolo[3,4-d]pyrimidin-3-yl)amino)nicotinamide] the IC50 [1] was 9.5 nM, the IC50 [2] was 0.55 nM and the IC50 (VEGFR2, unphosphorylated) was over 7500 nM. The IC50 (PDGFRβ; [3]) was 275 nM.

`Cc1nn(C)cc1Nc1ncc2c(Nc3cc(C(=O)NCCN4CCC(C)(C)C4)cnc3C)nn(C)c2n1` [Example 159, 5-((6-((1,3-dimethyl-1H-pyrazol-4-yl)amino)-1-methyl-1H-pyrazolo[3,4-d]pyrimidin-3-yl)amino)-N-(2-(3,3-dimethylpyrrolidin-1-yl)ethyl)-6-methylnicotinamide] showed an IC50 [1] of 13.3 nM, an IC50 [2] of 1.5 nM and an IC50 (VEGFR2, unphosphorylated) of over 7500 nM. For the same compound, the IC50 (PDGFRβ; [3]) was 60.7 nM.

In the case of `Cc1ncc(C(=O)NCCN(CCF)C2CCCC2)cc1Nc1nn(C)c2nc(Nc3cnn(C)c3)ncc12` [Example 152, N-(2-(cyclopentyl(2-fluoroethyl)amino)ethyl)-6-methyl-5-((1-methyl-6-((1-methyl-1H-pyrazol-4-yl)amino)-1H-pyrazolo[3,4-d]pyrimidin-3-yl)amino)nicotinamide], the IC50 [1] is reported as 3.4 nM, the IC50 [2] is reported as 0.45 nM and the IC50 (VEGFR2, unphosphorylated) is reported as 2530 nM. For the same compound, the IC50 (PDGFRβ; [3]) was 7.4 nM.

Work on `COCCN(CCNC(=O)c1cnc(C)c(Nc2nn(C)c3nc(Nc4cnn(C)c4)ncc23)c1)C1CCCC1` [Example 95, N-(2-(cyclopentyl(2-methoxyethyl)amino)ethyl)-6-methyl-5-((1-methyl-6-((1-methyl-1H-pyrazol-4-yl)amino)-1H-pyrazolo[3,4-d]pyrimidin-3-yl)amino)nicotinamide] yielded an IC50 [1] of 3.4 nM, an IC50 [2] of 0.53 nM and an IC50 (VEGFR2, unphosphorylated) of over 7500 nM. It also gave an IC50 (PDGFRβ; [3]) of 9.9 nM.

`Cc1ncc(C(=O)NCCN2CCCC2(C)C)cc1Nc1nn(C)c2nc(NC3CCS(=O)(=O)CC3)ncc12` [Example 45, N-(2-(2,2-dimethylpyrrolidin-1-yl)ethyl)-5-((6-((1,1-dioxido-tetrahydro-2H-thiopyran-4-yl)amino)-1-methyl-1H-pyrazolo[3,4-d]pyrimidin-3-yl)amino)-6-methylnicotinamide] was tested, and the IC50 [1] was 1640 nM, the IC50 [2] was 51 nM and the IC50 (VEGFR2, unphosphorylated) was over 10000 nM.

With `Cc1ncc(C(=O)NCCN2CC[C@H](C)C2)cc1Nc1nn(C)c2nc(Nc3cncnc3)ncc12` [Example 12, (S)-6-methyl-5-((1-methyl-6-(pyrimidin-5-ylamino)-1H-pyrazolo[3,4-d]pyrimidin-3-yl)amino)-N-(2-(3-methylpyrrolidin-1-yl)ethyl)nicotinamide] the IC50 (VEGFR2, unphosphorylated) was over 7500 nM and the IC50 (PDGFRβ) was 110 nM.

From US20240360134A1, “PYRAZOLOPYRIMIDINES AND THEIR USES AS PDGFR INHIBITORS” (priority 2021, published 2024)
